Results as given in patent US20200237875A1, “FORMULATIONS AND METHODS FOR TREATMENT OF FIBROMYALGIA AND RELATED MYOFASCIAL PAIN DISORDERS” (SYNLEV PHARMACEUTICALS CORPORATION, priority 2019, published 2020).
“Also recorded” adds a separate entry of the source.

Experiments:
fibromyalgia = conditions: cited from earlier work
[1] = system: patients with fibromyalgia and insulin resistance; experiment: Retrospective review of Numeric Pain Rating Scale (NPRS) pain scores before and after treatment; type: in vivo, human
Protocol: Data was obtained from the review of various patient populations as followed: First, the pain scores of two populations of patients were reviewed. Group 1 consisted of 16 patients with fibromyalgia and insulin resistance (HbA1c values of 5.7 or higher) who were prescribed metformin 500 mg twice a day for insulin resistance. In this group, metformin had been added to the “standard treatment” for fibromyalgia. The “standard treatment” (ST) consisted of norepinephrine reuptake inhibitors (amitriptyline, duloxetine or milnacipran) and/or membrane-stabilizing agents (gabapentin or pregabalin). […]
Second, the pain scores of another group of patients with insulin resistance and fibromyalgia, Group 2, who had been treated with […], a class of drugs that reduce insulin resistance by a mechanism different from metformin were analyzed. […]
Because peripheral neuropathies (including small fiber neuropathy) that are associated with insulin resistance may start at very early stages of pre-diabetes, there is a growing trend among experts to begin early pharmacological interventions to correct this abnormality, particularly when insulin resistance is associated with neuropathy or other risk factors. […] Pain scores were routinely recorded by the Numeric Pain Rating Scale (NPRS), at each clinical encounter. […]

[2] = in vivo; cited from earlier work

| SMILES | NNT (numbers needed to treat) (fibromyalgia) | change in pain scores (NPRS), in words ([1]; Group 2, 10 patients: 5 metformin alone, 5 PPD-4 inhibitor alone, no ST) | retention of the analgesic effect ([1]; long-term, refers to a Table 3 that is not given) | individuals intolerant to metformin [2] |
| --- | --- | --- | --- | --- |
| CN(C)CCC=C1c2ccccc2CCc2ccccc21 [amitriptyline] | 4 | – | – | – |
| CNCC[C@H](Oc1cccc2ccccc12)c1cccs1 [duloxetine] | 6 | – | – | – |
| CN(C)C(=N)N=C(N)N [metformin] | – | comparable reductions in pain scores; also recorded: this improvement was only partial | long-term retention of the analgesic effect | at least 20% |
